Key:
RORγt [1] = biological target: T1, RORγt (Homo sapiens, UniProt P51449); assay: RORγt binding test (TR-FRET, fluorescent-labeled cholesterol); settings: binding inhibitory rate of fluorescent-labeled cholesterol to RORγt at test compound 1 μM
T1 sequence (P51449 1-497 isoform P51449-2): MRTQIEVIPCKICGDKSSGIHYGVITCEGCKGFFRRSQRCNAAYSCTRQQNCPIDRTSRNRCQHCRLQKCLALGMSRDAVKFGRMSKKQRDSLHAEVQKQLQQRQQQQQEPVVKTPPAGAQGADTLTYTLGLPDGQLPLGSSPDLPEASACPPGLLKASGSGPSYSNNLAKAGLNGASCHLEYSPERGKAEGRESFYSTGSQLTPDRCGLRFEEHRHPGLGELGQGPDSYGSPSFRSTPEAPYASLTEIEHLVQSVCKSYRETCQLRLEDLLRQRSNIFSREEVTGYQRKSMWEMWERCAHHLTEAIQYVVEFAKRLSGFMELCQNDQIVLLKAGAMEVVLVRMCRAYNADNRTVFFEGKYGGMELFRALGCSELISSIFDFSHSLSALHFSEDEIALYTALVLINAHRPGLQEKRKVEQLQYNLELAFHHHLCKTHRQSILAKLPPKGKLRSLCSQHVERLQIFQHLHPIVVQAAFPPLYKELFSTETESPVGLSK
Description: The binding activity of the test compound to RORγt was measured by a time resolved fluorescence resonance energy transfer method (TR-FRET) utilizing histidine-tagged RORγt, fluorescent-labeled cholesterol (BODIPY-cholesterol, AVIVA) and terbium-labeled anti-histidine tag antibody (Invitrogen). First, a test compound diluted with an assay buffer (20 mM Tris-HCl (pH 7.5), 100 mM NaCl, 1 mM DTT, 0.1% BSA) was added to a 384 well plate by 3 μL each. Then, RORγt diluted with an assay buffer to 240 nM was added by 3 μL each, after which fluorescent-labeled cholesterol diluted with the assay buffer to 12 μM was added by 3 μL each, and the mixture was stood at room temperature for 20 min. Thereafter, a terbium-labeled anti-histidine tag antibody diluted with the assay buffer to 8 nM was added by 3 μL each. The mixture was stood at room temperature for 20 min, and fluorescence intensity (excitation wavelength 320 nm, fluorescence wavelength 520 nm, delay time 100 microseconds) was measured by Envision (PerkinElmer).

RORγt [2] = biological target: T1, RORγt; assay: Jurkat reporter test (IL-17 ROR response element luciferase); type: cell-based; design: expressed in transfected cells; host or cells: Jurkat cells; settings: test compound 3 μM, Jurkat cells; for inhibition at 3 µM: Jurkat, read-out: luminescence level inhibitory rate (%)
Description: The Jurkat cells used for the reporter test were cultured in a culture medium (RPMI (Invitrogen), 10% FCS (AusGeneX), 100 U/mL penicillin, 100 μg/mL streptomycin). On the day of the test, 4×10^7 cells were recovered by a centrifugal operation (1000 rpm, 5 min.) and suspended in PBS (phosphate buffered saline) (Invitrogen). Thereafter, the cells were recovered again by a centrifugal operation, and suspended in 2 mL of R buffer (NEON transfection kit, Invitrogen). […] Gene transfer was performed by Electroporation apparatus (NEON, Invitrogen) under the conditions of pulse voltage 1350 V, interval 10 milliseconds, number of times 3. The cells after gene transfer were suspended in 40 mL of a reaction medium (RPMI, 10% Lipid reduced FCS (HyClone), 10 mM HEPES (pH 7.5), 100 U/mL penicillin, 100 μg/mL streptomycin, 5 μM lovastatin), and plated in a 96 well plate by 90 μL each. A test compound diluted with the reaction medium was added by 10 μL each, and the cells were cultured overnight in an incubator. Bright-Glo (Promega) was added by 100 μL each, and the mixture was stirred at room temperature for 10 min, and the luminescence level was measured by Envision (PerkinElmer).

RORγt [3] = biological target: T1, RORγt; assay: Cofactor recruitment test (Alpha Screen, biotinylated SRC-1 peptide); type: biochemical; settings: test compound 1 μM; for inhibition at 1 µM: read-out: signal value inhibitory rate (%)
Description: Cofactor Recruitment Test
Cofactor recruitment test was performed by Alpha Screen (Histidine Detection Kit, PerkinElmer) method. First, a test compound diluted with an assay buffer (50 mM Tris-HCl (pH 7.5), 50 mM KCl, 1 mM DTT, 0.1% BSA) was added to a 384 well plate by 5 μL each. […] The mixture was stood in a dark place for 1 hr, and the signal value was measured by Envision (PerkinElmer).

SMILES: CCN1Cc2cc(NC(=O)CC(C)CC(=O)Nc3ccc(C#N)c(Cl)c3)ccc2N(CC)C1=O (centres unmarked) [Example 16, N-(3-chloro-4-cyanophenyl)-N′-(1,3-diethyl-2-oxo-1,2,3,4-tetrahydroquinazolin-6-yl)-3-methylpentanediamide]
- inhibition at 1 µM (RORγt [1]): 92.8%
- inhibition at 3 µM (RORγt [2]): 117%
- inhibition at 1 µM (RORγt [3]): 104%

SMILES: CCn1c(=O)n(COC)c(=O)c2cc(NC(=O)CC(C)CC(=O)Nc3ccc(C#N)c(Cl)c3)ccc21 (centres unmarked) [Example 19, N-(3-chloro-4-cyanophenyl)-N′-(1-ethyl-3-(methoxymethyl)-2,4-dioxo-1,2,3,4-tetrahydroquinazolin-6-yl)-3-methylpentanediamide]
- inhibition at 1 µM (RORγt [1]): 99.6%
- inhibition at 3 µM (RORγt [2]): 115%
- inhibition at 1 µM (RORγt [3]): 104%

SMILES: CCn1c(=O)n(CCOC)c(=O)c2cc(NC(=O)CC(C)CC(=O)Nc3ccc(C#N)c(Cl)c3)ccc21 (centres unmarked) [Example 20, N-(3-chloro-4-cyanophenyl)-N′-(1-ethyl-3-(2-methoxyethyl)-2,4-dioxo-1,2,3,4-tetrahydroquinazolin-6-yl)-3-methylpentanediamide]
- inhibition at 1 µM (RORγt [1]): 101%
- inhibition at 3 µM (RORγt [2]): 116%
- inhibition at 1 µM (RORγt [3]): 105%

SMILES: CCn1c(=O)n(CCCOC)c(=O)c2cc(NC(=O)CC(C)CC(=O)Nc3ccc(C#N)c(Cl)c3)ccc21 (centres unmarked) [Example 21, N-(3-chloro-4-cyanophenyl)-N′-(1-ethyl-3-(3-methoxypropyl)-2,4-dioxo-1,2,3,4-tetrahydroquinazolin-6-yl)-3-methylpentanediamide]
- inhibition at 1 µM (RORγt [1]): 103%
- inhibition at 3 µM (RORγt [2]): 118%
- inhibition at 1 µM (RORγt [3]): 104%

SMILES: C#CCn1c(=O)c2cc(NC(=O)CC(C)CC(=O)Nc3ccc(C#N)c(Cl)c3)ccc2n(CC)c1=O (centres unmarked) [Example 28, N-(3-chloro-4-cyanophenyl)-N′-(1-ethyl-2,4-dioxo-3-(prop-2-yn-1-yl)-1,2,3,4-tetrahydroquinazolin-6-yl)-3-methylpentanediamide]
- inhibition at 1 µM (RORγt [1]): 99.3%
- inhibition at 3 µM (RORγt [2]): 115%
- inhibition at 1 µM (RORγt [3]): 105%

SMILES: CCn1c(=O)n(C[Si](C)(C)C)c(=O)c2cc(NC(=O)CC(C)CC(=O)Nc3ccc(C#N)c(Cl)c3)ccc21 (centres unmarked) [Example 32, N-(3-chloro-4-cyanophenyl)-N′-(1-ethyl-2,4-dioxo-3-((trimethylsilyl)methyl)-1,2,3,4-tetrahydroquinazolin-6-yl)-3-methylpentanediamide]
- inhibition at 1 µM (RORγt [1]): 98.5%
- inhibition at 3 µM (RORγt [2]): 114%
- inhibition at 1 µM (RORγt [3]): 103%

SMILES: CCn1c(=O)c2cc(C(=O)NCC(CC(=O)Nc3ccc(C#N)c(Cl)c3)C(C)C)ccc2n(CC)c1=O (centres unmarked) [Example 35, N-(4-((3-chloro-4-cyanophenyl)amino)-2-isopropyl-4-oxobutyl)-1,3-diethyl-2,4-dioxo-1,2,3,4-tetrahydroquinazoline-6-carboxamide]
- binding inhibitory rate (%) (RORγt [1]; 1 µM): 102.0%
- luminescence level inhibitory rate (%) (RORγt [2]; 3 µM): 122.0%
- signal value inhibitory rate (%) (RORγt [3]; 1 µM): 105.0%

SMILES: CCn1c(=O)n(C2CC2)c(=O)c2cc(NC(=O)CC(C)CC(=O)Nc3ccc(C#N)c(Cl)c3)ccc21 (centres unmarked) [Example 60, N-(3-chloro-4-cyanophenyl)-N′-(3-cyclopropyl-1-ethyl-2,4-dioxo-1,2,3,4-tetrahydroquinazolin-6-yl)-3-methylpentanediamide]
- inhibition at 1 µM (RORγt [1]): 102%
- inhibition at 3 µM (RORγt [2]): 122%
- inhibition at 1 µM (RORγt [3]): 103%

SMILES: CCn1c(=O)n(CSC)c(=O)c2cc(NC(=O)CC(C)CC(=O)Nc3ccc(C#N)c(Cl)c3)ccc21 (centres unmarked) [Example 65, N-(3-chloro-4-cyanophenyl)-N′-(1-ethyl-3-((methylsulfanyl)methyl)-2,4-dioxo-1,2,3,4-tetrahydroquinazolin-6-yl)-3-methylpentanediamide]
- inhibition at 1 µM (RORγt [1]): 100%
- inhibition at 3 µM (RORγt [2]): 102%
- inhibition at 1 µM (RORγt [3]): 102%

SMILES: CCn1c(=O)c2cc(NC(=O)CC(C)CC(=O)Nc3ccc(C#N)c(Cl)c3)ccc2n(CSC)c1=O (centres unmarked) [Example 99, N-(3-chloro-4-cyanophenyl)-N′-(3-ethyl-1-((methylsulfanyl)methyl)-2,4-dioxo-1,2,3,4-tetrahydroquinazolin-6-yl)-3-methylpentanediamide]
- inhibition at 1 µM (RORγt [1]): 95.6%
- inhibition at 3 µM (RORγt [2]): 102%
- inhibition at 1 µM (RORγt [3]): 103%

SMILES: CC(O)(CC(=O)Nc1ccc(C#N)c(Cl)c1)CC(=O)Nc1ccc2c(c1)c(=O)n(CC1CC1)c(=O)n2CC1CC1 (centres unmarked) [Example 102, N-(1,3-bis(cyclopropylmethyl)-2,4-dioxo-1,2,3,4-tetrahydroquinazolin-6-yl)-N′-(3-chloro-4-cyanophenyl)-3-hydroxy-3-methylpentanediamide]
- inhibition at 1 µM (RORγt [1]): 103%
- inhibition at 3 µM (RORγt [2]): 104%
- inhibition at 1 µM (RORγt [3]): 104%

SMILES: CC(CNC(=O)c1cc2c(=O)n(CC3CC3)c(=O)n(CC3CC3)c2cn1)CC(=O)Nc1ccc(C#N)c(Cl)c1 (centres unmarked) [Example 112, N-(4-((3-chloro-4-cyanophenyl)amino)-2-methyl-4-oxobutyl)-1,3-bis(cyclopropylmethyl)-2,4-dioxo-1,2,3,4-tetrahydropyrido[3,4-d]pyrimidine-6-carboxamide]
- inhibition at 1 µM (RORγt [1]): 96.6%
- inhibition at 3 µM (RORγt [2]): 97.7%
- inhibition at 1 µM (RORγt [3]): 100%

SMILES: CC(CC(=O)Nc1ccc(C#N)c(Cl)c1)CC(=O)Nc1cc2c(=O)n(CC3CC3)c(=O)n(CC3CC3)c2cn1 (centres unmarked) [Example 113, N-(1,3-bis(cyclopropylmethyl)-2,4-dioxo-1,2,3,4-tetrahydropyrido[3,4-d]pyrimidin-6-yl)-N′-(3-chloro-4-cyanophenyl)-3-methylpentanediamide]
- inhibition at 1 µM (RORγt [1]): 103%
- inhibition at 3 µM (RORγt [2]): 96.5%
- inhibition at 1 µM (RORγt [3]): 102%

SMILES: CCn1c(=O)c2cc(NC(=O)CC(C)CC(=O)Nc3ccc(C#N)c(Cl)c3)ncc2n(CC)c1=O (centres unmarked) [Example 124, N-(3-chloro-4-cyanophenyl)-N′-(1,3-diethyl-2,4-dioxo-1,2,3,4-tetrahydropyrido[3,4-d]pyrimidin-6-yl)-3-methylpentanediamide]
- inhibition at 3 µM (RORγt [2]): 100%
- inhibition at 1 µM (RORγt [3]): 101%

SMILES: CC(C)n1c(=O)n(CC2CC2)c(=O)c2cc(NC(=O)CC(C)(O)CC(=O)Nc3ccc(C#N)c(Cl)c3)ccc21 (centres unmarked) [Example 142, N-(3-chloro-4-cyanophenyl)-N′-(3-(cyclopropylmethyl)-1-isopropyl-2,4-dioxo-1,2,3,4-tetrahydroquinazolin-6-yl)-3-hydroxy-3-methylpentanediamide]
- inhibition at 3 µM (RORγt [2]): 103%
- inhibition at 1 µM (RORγt [3]): 103%

SMILES: CC(CC(=O)Nc1ccc(C#N)c(Cl)c1)CC(=O)Nc1ccc2c(c1)c(=O)n(CC1CC1)c(=O)n2C(C)C (centres unmarked) [Example 144, N-(3-chloro-4-cyanophenyl)-N′-(3-(cyclopropylmethyl)-1-isopropyl-2,4-dioxo-1,2,3,4-tetrahydroquinazolin-6-yl)-3-methylpentanediamide]
- inhibition at 3 µM (RORγt [2]): 103%
- inhibition at 1 µM (RORγt [3]): 102%

SMILES: CC(CC(=O)Nc1ccc(C#N)c(Cl)c1)CC(=O)Nc1ccc2c(c1)C(=O)N(CC1CC1)C(=O)C21CCCC1 (centres unmarked) [Example 145, N-(3-chloro-4-cyanophenyl)-N′-(2′-(cyclopropylmethyl)-1′,3′-dioxo-2′,3′-dihydro-1′H-spiro[cyclopentane-1,4′-isoquinoline]-7′-yl)-3-methylpentanediamide]
- inhibition at 3 µM (RORγt [2]): 103%
- inhibition at 1 µM (RORγt [3]): 103%
